The subject of one data set is utrophin A mRNA. In words: utrophin A mRNA upregulation in C2C12 muscle cells (TaqMan qPCR). The conditions noted are these: either in serum-containing or serum-free media, FIG. 4. It is filed as cell-based. As for the experimental part:
In a further experiment, the activity of kawain, equilin and nabumetone were evaluated in C2C12 muscle cells for upregulation of utrophin A mRNA (FIG. 3). C2C12 muscle cells were treated with optimal doses of compounds (based on previous dose-response data) for 24 hours, either in the presence of serum or in the absence of serum (following 24 hours of serum starvation). Trichostatin A and heregulin were used as positive controls for utrophin upregulation in the presence (trichostatin A) or absence (heregulin) of serum. Utrophin A mRNA was measured using a TaqMan qPCR assay and normalised to 18S rRNA. Data are presented as fold-changes in utrophin A mRNA compared to DMS O-only controls (compounds) or media-only controls (trichostatin A and heregulin).
Additional experiments were performed in C2C12 cells. […] C2C12 cells were treated with Prestwick compounds A, J, L and S plus TSA and heregulin (HRG) as positive controls.

Data set [1] concerns utrophin promoter. Kind of data set: utrophin promoter-luciferase reporter screen, 384-well format. It is filed as cell-based. The conditions noted are these: C2C12utrn cells; for maximal fold induction: 24 h, read-out: Max. fold change. As for the experimental part: (§1) The ability of test compounds to upregulate activity of the utrophin promoter was determined using the muscle cell line C2C12utrn, which contains the utrophin gene promoter linked to the protein-encoding sequence for luciferase. Using these cells, a chemical library was screened for compounds that activate the utrophin promoter. Light production was the readout.
In the first screening, 384-well plates were used to grow C2C12 […] cells and expose to test compounds. Cells were exposed to test compounds at a single concentration for 24 hours, wherein 19 compounds of 1120 tested produced an increase of at least 20% of the activity of the luciferase reporter.
Subsequently, the 19 compounds were rescreened at 15 different concentrations.

The subject of data set [2] is utrophin promoter. In words: utrophin promoter-luciferase reporter assay, 96-well format. The format is cell-based. The note with it: for maximal fold induction: read-out: Max. fold change; for dose-dependent activation of the utrophin promoter: range of concentrations, 96-well plate format, FIGS. 1 and 2. As for the experimental part:
as §1
In some cases compounds were tested at a range of concentrations on test cells in a 96-well plate format.

Another data set has as its system mice. In words: in vivo treatment of mice: muscle weights and muscle function. From the text:
In vivo experiments were perfomed in mice by treating with nabumetone. […] Soleus, gastrocnemius (gastroc), tibialis anterior (TA) and quadriceps (quads) were bigger in treated mice. […] There was no difference in whole body weight between treatment groups.

Setting [3] is: 96-well format, C2C12utrn cells, luciferase readout.

The values below come from patent US20120010176A1, “UTROPHIN PROMOTER ACTIVITY UPREGULATION FOR THE TREATMENT OF MUSCULAR DYSTROPHY” (priority 2008, published 2012).

Where a name gives a salt, the structure may show the parent alone.

For `CC(/C=C/C(=O)NO)=C\[C@@H](C)C(=O)c1ccc(N(C)C)cc1` [TSA, Trichostatin A], the “levels of endogenous utrophin A mRNA” value in the data set on utrophin A mRNA is “increased”.

Consider `O=c1cc(-c2ccc(O)cc2)oc2cc(O)cc(O)c12` [apigenin, 5,7-dihydroxy-2-(4-hydroxyphenyl)-4H-1-benzopyran-4-one], for which the values for the maximal fold induction in the data set with utrophin promoter [1] (luciferase readout) and in the data set with utrophin promoter [2] (setting [3]) were 1.54 and 3.5, respectively. Besides, the “dose-dependent activation of the utrophin promoter” value in the data set with utrophin promoter [2] was “dose-dependent activation”.

On to `O=c1cc(-c2ccccc2)oc2cc(O)cc(O)c12` [chrysin, 5,7-dihydroxy-2-phenyl-4H-chromen-4-one], for which the results for the maximal fold induction in the data set with utrophin promoter [1] (luciferase readout) and in the data set on utrophin promoter [2] (setting [3]) were 1.5 and 3.4, respectively. Besides, the “dose-dependent activation of the utrophin promoter” value with utrophin promoter [2] was “dose-dependent activation”.

For `C#CCN(C)CCCOc1ccc(Cl)cc1Cl` [clorgyline HCl, N-[3-(2,4-dichlorophenoxy)propyl]-N-methylprop-2-yn-1-amine], the maximal fold induction in the data set with utrophin promoter [1] (luciferase readout) was determined as 1.16; in the data set with utrophin promoter [2] (setting [3]), 1.9. The “dose-dependent activation of the utrophin promoter” value with utrophin promoter [2] is on record as “dose-dependent activation”.

Regarding `C[C@]12CC[C@H]3C(=CCc4cc(O)ccc43)[C@@H]1CCC2=O` [equilin, 3-hydroxy-13-methyl-9,11,12,14,15,16-hexahydro-6H-cylcopenta(a)phenanthren-17-one], the figures for the maximal fold induction in the data set with utrophin promoter [1] (luciferase readout) and with utrophin promoter [2] (setting [3]) were 1.6 and 3.4, respectively. Moreover, the “dose-dependent activation of the utrophin promoter” value in the data set with utrophin promoter [2] is on record as “dose-dependent activation”.

On to `COc1ccc([C@@H]2CC(=O)c3c(O)cc(O)cc3O2)cc1O` [hesperetin, (S)-2,3-dihydro-5,7-dihydroxy-2-(3-hydroxy-4-methoxyphenyl)-4H-1-benzopyran-4-one], for which the values for the maximal fold induction with utrophin promoter [1] (luciferase readout) and in the data set on utrophin promoter [2] (setting [3]) were 1.94 and 2.9, respectively. The “dose-dependent activation of the utrophin promoter” value with utrophin promoter [2] is “dose-dependent activation”.

Turning to `COC1=CC(=O)O[C@@H](/C=C/c2ccccc2)C1` [kawain, [R-(E)]-5,6-dihydro-4-methoxy-6-(2-phenylethenyl)-2H-pyran-2-one], the Optimal dose was determined as 10 µM in the data set with utrophin promoter [1] and 20 µM in the data set on utrophin promoter [2] (96-well format, C2C12utrn cells). The Max. fold change in the data set with utrophin promoter [1] (luciferase readout) was determined as 1.37; in the data set on utrophin promoter [2] (setting [3]) it was 2.5. For the same compound, the “dose-dependent activation of the utrophin promoter” value in the data set on utrophin promoter [2] was “dose-dependent activation”.

Regarding `Cc1oncc1C(=O)Nc1ccc(C(F)(F)F)cc1` [leflunomide, 5-methyl-N-[4-(trifluoromethyl)phenyl]isoxazole-4-carboxamide], the maximal fold induction in the data set with utrophin promoter [1] (luciferase readout) worked out at 1.38; with utrophin promoter [2] (setting [3]), 2.9. Moreover, the “dose-dependent activation of the utrophin promoter” value with utrophin promoter [2] is “dose-dependent activation”.

As to `COc1ccc2cc(CCC(C)=O)ccc2c1` [nabumetone, 4-(6-methoxy-2-naphthyl)-2-butanone], the maximal fold induction in the data set with utrophin promoter [1] (luciferase readout) worked out at 1.56. In the data set with utrophin promoter [2] (setting [3]), the maximal fold induction turned out to be 2.5. Further, the “dose-dependent activation of the utrophin promoter” value in the data set with utrophin promoter [2] is “dose-dependent activation”. Moreover, the “whole body weight between treatment groups” value in the data set on mice (mice, FIG. 5) is recorded as “no difference”. For the same compound, the “muscle weight, EDL” value with mice (treated mice, FIG. 5) was “not significantly bigger”. Also, in the data set with mice (treated mice, FIG. 5, p<0.05), the “muscle weight, gastrocnemius (gastroc)” value was “bigger”; the “muscle weight, quadriceps (quads)” value is on record as “bigger”; the “muscle weight, soleus” value is listed as “bigger”; the “muscle weight, tibialis anterior (TA)” value was “bigger”. In addition, the force generating capacity entry in the data set with mice (treated muscles, FIG. 6) was “trend towards increased”. For the same compound, the “peak specific twitch force” value with mice (treated muscles, FIG. 6, p<0.05) is given as “significantly increased”. Also, the “force drop on eccentric contraction” value with mice (treated muscles, FIG. 6, trend) is reported as “decreased”.

In the case of `Nc1ccc(/N=N/c2ccccc2)c(N)n1` [phenazopyridine HCl, 3-phenyldiazenylpyridine-2,6-diamine], the figures for the maximal fold induction in the data set with utrophin promoter [1] (luciferase readout) and in the data set on utrophin promoter [2] (setting [3]) were 1.62 and 2.6, respectively. The “dose-dependent activation of the utrophin promoter” value in the data set on utrophin promoter [2] was “dose-dependent activation”.

For the compound `O=C(/C=C/C=C/c1ccc2c(c1)OCO2)N1CCCCC1` [piperine, 1-[5-(1,3-benzodioxol-5-yl)-1-oxo-2,4-pentadienyl]piperidine], the maximal fold induction in the data set on utrophin promoter [1] (luciferase readout) turned out to be 1.59; in the data set on utrophin promoter [2] (setting [3]), 2.3. Also, the “dose-dependent activation of the utrophin promoter” value in the data set on utrophin promoter [2] is “dose-dependent activation”.

Regarding `Oc1ccc(/C=C/c2cc(O)cc(O)c2)cc1` [resveratrol, trans-3,4′,5-trihydroxystilbene], the maximal fold induction in the data set on utrophin promoter [1] (luciferase readout) was 1.62; in the data set with utrophin promoter [2] (setting [3]), 2.2. Also, the “dose-dependent activation of the utrophin promoter” value in the data set with utrophin promoter [2] was “dose-dependent activation”.

Regarding `Nc1nc2ccc(OC(F)(F)F)cc2s1` [riluzole HCl, 6-(trifluoromethoxy)benzothiazol-2-amine], the figures for the maximal fold induction with utrophin promoter [1] (luciferase readout) and in the data set with utrophin promoter [2] (setting [3]) were 1.56 and 2.2, respectively. In addition, the “dose-dependent activation of the utrophin promoter” value in the data set with utrophin promoter [2] was “dose-dependent activation”.

Take `c1ccc2[nH]c(-c3cscn3)nc2c1` [tiabendazole, 2-(1,3-thiazol-4-yl)-1H-benzoimidazole]: the maximal fold induction in the data set on utrophin promoter [1] (luciferase readout) stood at 1.86; in the data set with utrophin promoter [2] (setting [3]), 2.1. The “dose-dependent activation of the utrophin promoter” value with utrophin promoter [2] is “dose-dependent activation”.

For heregulin, the “levels of endogenous utrophin A mRNA” value in the data set with utrophin A mRNA is “increased”.
